Test results published in ChEMBL document CHEMBL1201862, “PubChem BioAssay data set” (2004).
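Method: 48-hour compound exposure of cells in 96-well plates, five concentrations, linear interpolation of endpoints. GI50 is the concentration that inhibits growth by half.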 The source made the active and inactive calls. No stated cut-off is given here; in the data, active = GI50 up to about 1.1 µM and inactive = higher.

Legend:
Test in all cases: inhibition of tumour cell growth, NCI panel, 48 h
[1] = system: M14
[2] = system: HCT-15
[3] = system: UACC-257
[4] = system: SF-539
[5] = system: BT-549
[6] = system: NCI-H23
[7] = system: HT-29
[8] = system: SN12C
[9] = system: KM12
[10] = system: OVCAR-4
[11] = system: HOP-62
[12] = system: MOLT-4
[13] = system: RXF 393
[14] = system: SK-MEL-28
[15] = system: MDA-MB-231
[16] = system: MDA-N
[17] = system: SK-OV-3
[18] = system: OVCAR-3
[19] = system: UO-31
[20] = system: NCI-H460

| SMILES | GI50 [1] | GI50 [2] | GI50 [3] | GI50 [4] | GI50 [5] | GI50 [6] | GI50 [7] | GI50 [8] | GI50 [9] | GI50 [10] | GI50 [11] | GI50 [12] | GI50 [13] | GI50 [14] | GI50 [15] | GI50 [16] | GI50 [17] | GI50 [18] | GI50 [19] | GI50 [20] |
| --- | --- | --- | --- | --- | --- | --- | --- | --- | --- | --- | --- | --- | --- | --- | --- | --- | --- | --- | --- | --- |
| Cc1cc2c(O)c(c1)CN(CC(=O)O)Cc1cc(C)cc(c1O)CN(CC(=O)O)Cc1cc(C)cc(c1O)CN(CC(=O)O)C2 | > 100 µM (inactive) | > 100 µM | > 100 µM (inactive) | > 100 µM (inactive) | > 100 µM (inactive) | > 100 µM (inactive) | > 100 µM (inactive) | > 100 µM (inactive) | > 100 µM (inactive) | > 100 µM (inactive) | > 100 µM (inactive) | > 100 µM (inactive) | > 100 µM (inactive) | > 100 µM (inactive) | > 100 µM (inactive) | > 100 µM (inactive) | > 100 µM (inactive) | > 100 µM (inactive) | > 100 µM (inactive) | > 100 µM (inactive) |
| CCN(CC)c1ccc(/C=C(\C#N)c2nc(N)nc(N3N=C(C)CC3(C)C)n2)cc1 | 19.2 µM (inactive) | > 59.3 µM | 45.2 µM (inactive) | 6.89 µM (inactive) | 47.4 µM (inactive) | 27.5 µM (inactive) | 18.8 µM (inactive) | 27.3 µM (inactive) | 13.1 µM (inactive) | 11.6 µM (inactive) | 11.1 µM (inactive) | 10.7 µM (inactive) | 8.93 µM (inactive) | 36.1 µM (inactive) | 13.6 µM (inactive) | 24.1 µM (inactive) | 6.61 µM (inactive) | 17.5 µM (inactive) | 22.4 µM (inactive) | 18.3 µM (inactive) |
| [N-]=[N+]=NCC(=O)c1cnc(O)nc1O | > 100 µM (inactive) | > 100 µM | > 100 µM (inactive) | > 100 µM (inactive) | > 100 µM (inactive) | > 100 µM (inactive) | > 100 µM (inactive) | > 100 µM (inactive) | > 100 µM (inactive) | > 100 µM (inactive) | > 100 µM (inactive) | – | > 100 µM (inactive) | > 100 µM (inactive) | > 100 µM (inactive) | > 100 µM (inactive) | > 100 µM (inactive) | > 100 µM (inactive) | > 100 µM (inactive) | > 100 µM (inactive) |
| COc1cc(-c2cc(=O)c3c(O)c(OC)c(OC)c(OC)c3o2)cc(OC)c1OC [GARDENIN] | > 100 µM (inactive) | > 100 µM | > 100 µM (inactive) | 17.1 µM (inactive) | 6.76 µM (inactive) | 15.1 µM (inactive) | > 100 µM (inactive) | 3.94 µM (inactive) | > 100 µM (inactive) | > 100 µM (inactive) | 3.43 µM (inactive) | > 100 µM (inactive) | 8.83 µM (inactive) | > 100 µM (inactive) | 2.91 µM (inactive) | > 92.7 µM (inactive) | 5.45 µM (inactive) | 3.36 µM (inactive) | 7.36 µM (inactive) | 5.01 µM (inactive) |
| O=C(N/N=C1/C(=O)c2c3ccccc3cc3cccc1c23)c1ccccc1 | 48.4 µM (inactive) | 49.1 µM | > 62.1 µM (inactive) | 37.1 µM (inactive) | > 100 µM (inactive) | 36.3 µM (inactive) | 30.2 µM (inactive) | 37.8 µM (inactive) | 16.7 µM (inactive) | 20.8 µM (inactive) | 19.5 µM (inactive) | > 62.7 µM (inactive) | 22.1 µM (inactive) | > 54.8 µM (inactive) | 42.4 µM (inactive) | 39.4 µM (inactive) | 31.8 µM (inactive) | 42.3 µM (inactive) | 30.9 µM (inactive) | 16.9 µM (inactive) |
| [N-]=[N+]=CC(=O)C1CCCN1C(=O)c1ccccc1 (centres undefined) | > 10 µM (inactive) | > 10 µM | > 10 µM (inactive) | > 10 µM (inactive) | > 10 µM (inactive) | > 10 µM (inactive) | > 10 µM (inactive) | > 10 µM (inactive) | > 10 µM (inactive) | > 10 µM (inactive) | > 10 µM (inactive) | > 10 µM (inactive) | > 10 µM (inactive) | > 10 µM (inactive) | > 10 µM (inactive) | > 10 µM (inactive) | > 10 µM (inactive) | > 10 µM (inactive) | > 10 µM (inactive) | > 10 µM (inactive) |
| NNC(=O)CSc1nc2ccccc2c(=O)n1N | > 100 µM (inactive) | > 100 µM | > 100 µM (inactive) | 31 µM (inactive) | 42.1 µM (inactive) | 29.8 µM (inactive) | 22.2 µM (inactive) | 37.8 µM (inactive) | > 100 µM (inactive) | > 100 µM (inactive) | – | > 100 µM (inactive) | 31.7 µM (inactive) | > 100 µM (inactive) | 17.3 µM (inactive) | > 100 µM (inactive) | – | > 100 µM (inactive) | > 100 µM (inactive) | 57.1 µM (inactive) |
| COc1ccc(C(OCC2OC(n3ccc(Oc4c(F)c(F)c(F)c(F)c4F)nc3=O)CC2OP(OCCC#N)N(C(C)C)C(C)C)(c2ccccc2)c2ccc(OC)cc2)cc1 (centres undefined) | > 100 µM (inactive) | > 100 µM | > 100 µM (inactive) | > 100 µM (inactive) | > 100 µM (inactive) | 42.8 µM (inactive) | > 100 µM (inactive) | > 100 µM (inactive) | > 100 µM (inactive) | – | > 100 µM (inactive) | > 100 µM (inactive) | > 100 µM (inactive) | > 100 µM (inactive) | > 100 µM (inactive) | > 100 µM (inactive) | > 100 µM (inactive) | > 100 µM (inactive) | > 100 µM (inactive) | > 100 µM (inactive) |
| Cc1cc2c(cc1C)[n+]([O-])c(C(F)(F)F)c(C(=O)c1ccccc1)[n+]2[O-] | 3.73 µM (inactive) | 3.24 µM | 3.02 µM (inactive) | 5.07 µM (inactive) | 5.35 µM (inactive) | 2.12 µM (inactive) | 1.71 µM (inactive) | 2.74 µM (inactive) | 1.85 µM (inactive) | – | 0.299 µM (active) | 1.69 µM (inactive) | 3.13 µM (inactive) | 4.52 µM (inactive) | 2.3 µM (inactive) | 3.35 µM (inactive) | 4 µM (inactive) | 0.227 µM (active) | 0.484 µM (active) | 1.26 µM (inactive) |
| O=c1ccn(CC2(CO)CCCC2)c(=O)[nH]1 | – | > 100 µM | > 100 µM (inactive) | > 100 µM (inactive) | > 100 µM (inactive) | > 100 µM (inactive) | > 100 µM (inactive) | > 100 µM (inactive) | > 100 µM (inactive) | > 100 µM (inactive) | > 100 µM (inactive) | > 100 µM (inactive) | > 100 µM (inactive) | > 100 µM (inactive) | > 100 µM (inactive) | > 100 µM (inactive) | > 100 µM (inactive) | > 100 µM (inactive) | > 100 µM (inactive) | > 100 µM (inactive) |
| COC(=O)C([C@H]1CC[C@H](OCc2ccccc2)[C@@]1(O)COCc1ccccc1)C(C)(O)CCc1ccccc1 (some centres undefined) | 10.6 µM (inactive) | 13.5 µM | 13.8 µM (inactive) | 15.4 µM (inactive) | 16.7 µM (inactive) | 15.4 µM (inactive) | 4.55 µM (inactive) | 5.13 µM (inactive) | 3.32 µM (inactive) | 17.1 µM (inactive) | 15.2 µM (inactive) | 3.63 µM (inactive) | 10.4 µM (inactive) | 15.3 µM (inactive) | 12 µM (inactive) | 13.1 µM (inactive) | 27.1 µM (inactive) | 12.7 µM (inactive) | 10.7 µM (inactive) | – |
| C[C@H](CCC(=O)O)[C@H]1CC[C@H]2[C@@H]3[C@@H](O)C[C@@H]4C[C@H](O)CC[C@]4(C)[C@H]3CC[C@]12C [URSODIOL] | > 100 µM (inactive) | > 100 µM | > 100 µM (inactive) | > 100 µM (inactive) | > 100 µM (inactive) | > 100 µM (inactive) | > 100 µM (inactive) | > 100 µM (inactive) | > 100 µM (inactive) | > 100 µM (inactive) | > 100 µM (inactive) | 47.4 µM (inactive) | > 100 µM (inactive) | > 100 µM (inactive) | > 100 µM (inactive) | > 100 µM (inactive) | – | – | 70 µM (inactive) | > 100 µM (inactive) |
| O=C(O)COc1c(Cl)cc(Cl)c(C(c2c(Cl)cc(Cl)c(OCC(=O)O)c2Cl)C(Cl)(Cl)Cl)c1Cl | 20.7 µM (inactive) | 26.4 µM | 26.2 µM (inactive) | 29.2 µM (inactive) | 23.1 µM (inactive) | 25.9 µM (inactive) | 29 µM (inactive) | 31 µM (inactive) | 40.1 µM (inactive) | 30.8 µM (inactive) | 0.398 µM (active) | 35.3 µM (inactive) | 30.9 µM (inactive) | 40.2 µM (inactive) | 24.9 µM (inactive) | > 100 µM (inactive) | 20.9 µM (inactive) | – | 23 µM (inactive) | 31.6 µM (inactive) |
| C=C1NC(=O)C(CC(C(=O)C(=O)Nc2c(C)cccc2C(C)(C)C)C(=O)c2ccc3ccccc3c2)C(=O)N1 (centres undefined) | > 100 µM (inactive) | > 100 µM | > 100 µM (inactive) | > 100 µM (inactive) | > 100 µM (inactive) | > 100 µM (inactive) | > 100 µM (inactive) | > 100 µM (inactive) | > 100 µM (inactive) | > 100 µM (inactive) | – | > 100 µM (inactive) | > 100 µM (inactive) | > 100 µM (inactive) | > 100 µM (inactive) | > 100 µM (inactive) | > 100 µM (inactive) | > 100 µM (inactive) | > 100 µM (inactive) | > 100 µM (inactive) |
